One substance from patent publication US20170239334A1, “ANTI-DIARRHEA FORMULATION WHICH AVOIDS ANTIMICROBIAL RESISTANCE” (Anatara Lifesciences Limited, priority 2014, published 2017) can be followed below.

The nature of this assay: Trial 2 (France): blinded randomised field trial in weaned piglets, weight gain, feed intake and feed conversion ratio versus in-feed colistin. The format is in vivo. How it is done:
Aim: The objective of this study was to compare the feed conversion ratios of piglets administered a single dose of my formulation with in feed colistin, an antibiotic.
Study Outline: This study was a blinded, controlled, randomised field trial comparing three parallel groups of piglets, (n=89 per group): 1. Colistin; 2. My formulation; and 3. No treatment. In this study, whole litters are randomised to receive different treatments, so litters are treated on a whole litter basis.
Weaning on this farm occurs in 2 stages. In stage 1, piglets are weaned by removing the sow (at day-5). Then on day 0, piglets are moved to their weaning pen.
At day-5, Group 1 piglets were administered colistin (9 kg antibiotic premix per Ton of feed) in pre-starter feed for 14 days (day-5 to day 9). The other two groups were administered pre-starter feed alone. On day 0 (5 days post weaning), when piglets are moved to their weaner pens, Group 2 piglets received a single dose of my formulation. Group 3 piglets were untreated.
Analysis: As Per Study 1.

[1] abbreviates: pre-starter phase (d-5 to d9), 6 pens.

Consider colistin, for which the “Average Daily Weight gain” value (Post weaning) was found to be 377 ± 82 g. For the same substance, for the setting “Post weaning and fattening (overall)”, the “Average Daily Weight gain” value worked out at 664 ± 67 g. Further, the “Average Daily Weight gain” value (Pre-starter (d -5 to d 9)) was 167 ± 67 g. Under “Starter”, the “Average Daily Weight gain” value was found to be 505 ± 110 g. Under setting [1], the “Feed Conversion Ratio, Arithmetic Mean” value was found to be 2.71; the “Feed Conversion Ratio, Median” value is given as 2.59; the “Feed Conversion Ratio, Min-Max” value is recorded as 1.75-3.42; the “Feed intake, Arithmetic Mean” value is given as 417 g. In addition, under setting [1], the “Feed intake, Min-Max” value was in the range of 358 to 479 g.
